# Data: patent publication EP0167553B1, “NEW THERAPEUTICAL APPLICATION OF AN INDANE DIONE DERIVATIVE AND PHARMACEUTICAL COMPOSITIONS INTENDED TO SAID UTILIZATION” (priority 1983, dated 1985)
# How the values were obtained:
# Assay type in all cases: in vivo
# [1] = Chronic administration, maximum tolerated dose in the rat; conditions: rat, in vivo, administration chronique, read-out: dose maximale tolérée
# Experimental: (§1) • - Le comportement et l'[…] pondérale des animaux sont étudiés par l'observation quotidienne et les pesées hebdomadaires. L'étude de l'évolution pondérale ne montre pas de différence significative entre les différents lots. C'est un indice de bonne tolérance du traitement. • - La moralité est notée dans chaque lot; elle peut atteindre 30 % des animaux ce qui nécessite des lots de 15 animaux. L'administration chronique de 100 mg/kg de Clofibrate correspond à la dose maximale tolérée par le Rat sain selon nos expériences personnelles.
# Rat sain = assay: as above; conditions: administration chronique
# Experimental: as §1
# Rat Wistar = assay: Hyperlipidaemia induced by Triton WR 1339 injection; design: Triglycérides, score par rapport au Procétofène 250 mg/kg: scale not given here
# Text: L'hyperlipidémie par injection de Triton WR 1339 (marque de fabrique), réalisée chez le Rat Wistar, est antagonisée ou diminuée par l'administration d'agents hypolipémiants.
# • - Rats Wistar mâles. • - Poids corporel: 150 -180 grammes. • - Animaux E.O.P.S. (Exempts d'Organisme Pathogène Spécifique). • - Alimentation UAR A04 • - Eau de boisson à volonté • - 6 animaux par lot de traitement et par cage MAKROLON SAFI (marque de fabrique) 60 X 40 cm, sur litière de copeaux de bois dépoussiérés • - Cages placées dans un module animalerie climatisé (19 à 21°C) à degré hygrométrique constant (40 à 60 p.100), dans lequel l'air est renouvelé 10 fois par heure, 12 heures d'éclairement par jour.
# • . - 18 h: mise à jeun. • . Temps 0 - administration du Triton WR 1339® (400 mg/kg IP.). • . + 10 mn: administration du produit étudié. • - + 6 h: 1er prélèvement sanguin au sinus rétro-orbitaire. • . + 24 h: 2ème prélèvement sanguin au sinus rétro-orbitaire.
# L'essai comporte 8 lots dont un lot témoin (animaux sains) et un lot témoin triton (Tableau I).
# [2] = 125 mg/kg, 6 heures after Triton
# [3] = 125 mg/kg, 24 heures after Triton
# [4] = 250 mg/kg, 6 heures after Triton
# [5] = 250 mg/kg, 24 heures after Triton
# [6] = 500 mg/kg, 6 heures after Triton
# [7] = 500 mg/kg, 24 heures after Triton
# [8] = 750 mg/kg, 6 heures after Triton
# [9] = 750 mg/kg, 24 heures after Triton
smiles,measurement,setting,value
CCOC(=O)C(C)(C)Oc1ccc(Cl)cc1 [Clofibrate],MTD,[1],~100 mg/kg
same,dose maximale tolérée,Rat sain,100 mg/kg
"COc1ccc(C(=O)CC2(O)C(=O)c3ccccc3C2=O)cc1OC [Produit de l'invention, 2-[(3,4-dimethoxybenzoyl)methyl] 2-hydroxy 1,3-dioxo indane]","Chol. Total, score par rapport au Procétofène 250 mg/kg",Rat Wistar; [2],2.44
same,Score Total par rapport au Procétofène 250 mg/kg,Rat Wistar; [2],2.75
same,"Triglycérides, score par rapport au Procétofène 250 mg/kg",Rat Wistar; [2],0.31
same,"Chol. HDL/ LDL, score par rapport au Procétofène 250 mg/kg",Rat Wistar; [3],1.40
same,"Chol. Total, score par rapport au Procétofène 250 mg/kg",Rat Wistar; [3],0.28
same,Score Total par rapport au Procétofène 250 mg/kg,Rat Wistar; [3],1.94
same,"Triglycérides, score par rapport au Procétofène 250 mg/kg",Rat Wistar; [3],0.26
same,"Chol. HDL/ LDL, score par rapport au Procétofène 250 mg/kg",Rat Wistar; [4],0.87
same,"Chol. Total, score par rapport au Procétofène 250 mg/kg",Rat Wistar; [4],1.15
same,"Lipides Totaux, score par rapport au Procétofène 250 mg/kg",Rat Wistar; [4],0.92
same,Score Total par rapport au Procétofène 250 mg/kg,Rat Wistar; [4],3.74
same,"Triglycérides, score par rapport au Procétofène 250 mg/kg",Rat Wistar; [4],0.80
same,"Chol. HDL/ LDL, score par rapport au Procétofène 250 mg/kg",Rat Wistar; [5],1.10
same,"Chol. Total, score par rapport au Procétofène 250 mg/kg",Rat Wistar; [5],1.13
same,"Lipides Total, score par rapport au Procétofène 250 mg/kg",Rat Wistar; [5],1.56
same,Score Total par rapport au Procétofène 250 mg/kg,Rat Wistar; [5],4.64
same,"Triglycérides, score par rapport au Procétofène 250 mg/kg",Rat Wistar; [5],0.85
same,"Chol. HDL/ LDL, score par rapport au Procétofène 250 mg/kg",Rat Wistar; [6],2.00
same,"Chol. Total, score par rapport au Procétofène 250 mg/kg",Rat Wistar; [6],0.35
same,"Lipides Totaux, score par rapport au Procétofène 250 mg/kg",Rat Wistar; [6],1.00
same,Score Total par rapport au Procétofène 250 mg/kg,Rat Wistar; [6],4.95
same,"Triglycérides, score par rapport au Procétofène 250 mg/kg",Rat Wistar; [6],1.60
same,"Chol. HDL/ LDL, score par rapport au Procétofène 250 mg/kg",Rat Wistar; [7],0.80
same,"Chol. Total, score par rapport au Procétofène 250 mg/kg",Rat Wistar; [7],0.75
same,"Lipides Total, score par rapport au Procétofène 250 mg/kg",Rat Wistar; [7],1.62
same,Score Total par rapport au Procétofène 250 mg/kg,Rat Wistar; [7],3.66
same,"Triglycérides, score par rapport au Procétofène 250 mg/kg",Rat Wistar; [7],0.49
same,"Chol. Total, score par rapport au Procétofène 250 mg/kg",Rat Wistar; [8],0.78
same,"Lipides Totaux, score par rapport au Procétofène 250 mg/kg",Rat Wistar; [8],0.14
same,Score Total par rapport au Procétofène 250 mg/kg,Rat Wistar; [8],1.72
same,"Triglycérides, score par rapport au Procétofène 250 mg/kg",Rat Wistar; [8],0.80
same,"Chol. HDL/ LDL, score par rapport au Procétofène 250 mg/kg",Rat Wistar; [9],0.40
same,"Chol. Total, score par rapport au Procétofène 250 mg/kg",Rat Wistar; [9],0.61
same,Score Total par rapport au Procétofène 250 mg/kg,Rat Wistar; [9],1.73
same,"Triglycérides, score par rapport au Procétofène 250 mg/kg",Rat Wistar; [9],0.72
same,hyperlipémie provoquée par le Triton WR 1339,"Rat Wistar; dès la dose de 125 mg/kg par voie orale, Rat",antagonisée au diminuée
